# In patent US11643439B2, “Multi-target compound with anticoagulation and antiplatelet activity, preparation method therefor, and use thereof” (SHAANXI MICOT TECHNOLOGY LIMITED COMPANY, priority 2015, dated 2023):
# Assays:
# [1] = tested on: femoral arterial and venous bypass thrombosis; assay: Femoral arterial and venous bypass thrombosis in rabbits, single intravenous administration; format: in vivo, rabbit; settings: single iv 200 U (U/kg), 15 min
# Procedure: 1. Grouping and administration: 48 Rabbits were randomly divided into 6 groups, 8 rabbits per group. 1) Sham operation group (NS): Intravenous injection of the same volume of physiological saline; 2) positive control bivalirudin group (6 mg/kg); 3) positive control enoxaparin group (200 U/kg); 4) Low dose group of polypeptide 2 (3.0 mg/kg); 5) Medium dose group of polypeptide 2 (6.0 mg/kg); 6) High dose group of polypeptide 2 (12.0 mg/kg). Polypeptide 2 was administered by single intravenous administration. According to the body weight in kilograms of the rabbits, the sample was dissolved in 2 mL of physiological saline for single bolus injection. The sham operation group was administered with the same volume of physiological saline.
# 2.1 Surgery preparation of rabbits: Rabbit were sent to the laboratory for accommodation for one day, and then screened at first. Blood samples were taken from arteries within ears, which were subjected to blood routine analysis and APTT examinations, and the rabbits with a normal blood hemogram and APTT between 16 and 28 seconds were selected for experiments. The rabbits to be tested were fasted with free access to water in the night before the experiment. The rabbits were anesthetized with intravenous injection of 3% sodium pentobarbital solution at 1 ml/kg, fixed in the supine position, and then, the common carotid artery at one side, external jugular vein, femoral artery at one side, femoral vein, and forelimb vein at one side were isolated. The forelimb vein was subjected to intubation for administration; the left femoral vein was subjected to intubation for blood collection to determine the platelet aggregation rate: the femoral artery was used for the establishment of an arterial thrombosis model; the common carotid artery and external jugular vein were used for the establishment of an arterial and venous bypass thrombosis model.
# 2.2 Arterial and venous bypass thrombosis (AVST) model: An arterial and venous shunt consists of two casings, of which an outer casing has a length of about 8 cm and an inner diameter of 7.9 mm, the inner casing has a length of about 2.5 cm and an inner diameter of 4.8 mm. The polyethylene tube was charged with a silk thread about 8 cm long and filled with […] heparin solution, of which one end was inserted into the left femoral artery and the other end was inserted into the right femoral vein. After administration for 30 seconds, the blood flow was released, which flowed from the left artery to the polyethylene tube and returned to the right vein. After 15 minutes, the blood flow was interrupted, the silk thread was quickly removed and placed on an aluminum foil (size: 2.5 cm×2.5 cm), measured for its wet weight, and kept overnight at room temperature and weighed for its dry weight.
# The femoral arteries in the […] and both sides in the rabbits were isolated and stabilized for 10 min before the administration was started. An AT model was established by covering the femoral artery with 50% FeCl3 filter paper while administration, and the filter paper was removed after covering for 15 minutes. An AVST model was established and it was taken out after […]. Observation was continued for 120 min after administration until the experiment was completed.
# 3.4 Thrombus weight: After the experiment was completed, the segment of the blood vessels in which there had been thrombus formation was cut off, weighed for the wet weight, and then kept overnight at room temperature and weighed for the dry weight. The thrombosis inhibitory rate was calculated with a calculation equation as follows: […]
# [2] = tested on: blood coagulation function; assay: APTT in rats, intravenous maintenance administration; format: in vivo, rat
# Procedure: (§1) 160 Rats were randomly divided into groups, 5 to 10 rats per group.
# (§2) According to the body weight in kilograms of the rats, the first dose of a drug was dissolved in 2 mL of physiological saline for single bolus injection. The maintaining dose of drug was dissolved in 9 ml of physiological saline, and placed in a double-channel micro-injection pump, which was dripped off within 90 minutes at a dripping speed of 0.1 ml/min. The sham operation group was administered with the same volume of physiological saline.
# (§3) The rats were fasted with free access to water overnight before the experiment.
# (§4) The blood samples were taken before administration, administration for 60 minutes, and before termination of administration, respectively, to determine their activated partial thromboplastin time (APTT) and prothrombin time (PT). The blood samples were centrifuged at 3510 rpm for 8 minutes to obtain platelet poor plasma (PPP). Reagent reconstruction and preservation were performed according to the operation requirements of the kit. Immediately after each blood sample was placed into a test cup and then PT and APTT reagents were added, the test was started. After the test was completed, results were recorded.
# (§5) 5.1 Determination of blood coagulation function: The blood samples were taken 0 min before administration, administration for 60 minutes, and termination of administration, respectively, and then determined using a platelet-aggregation coagulation factor analyzer for the blood coagulation functions (PT. APTT) and ACT.
# [3] = tested on: FeCl3-induced common carotid arterial thrombosis; assay: FeCl3-induced common carotid arterial thrombosis in rats; format: in vivo, rat
# Procedure: as §1, §2, §3
# After administration at a load dosage maintenance for 30 minutes, a filter paper with a 3 mm diameter and immersed with 35% FeCl3 solution was applied below the common carotid artery, below which a small piece of a plastic film (2.5 cm×2.0 cm) was placed to protect surrounding tissues. The body temperature was detected with a temperature probe in the distal end of the artery, and the time required from the beginning of stimulation to the point when the temperature decreased by 2.5 degrees was examined as the vascular occlusion time.
# The time from the point when FeCl3 was placed to the point when the temperature of the artery indicated a decrease of 2.5° C. was the vascular occlusion time, which reflected the state of thrombus formation.
# [4] = tested on: blood coagulation function; assay: PT in rats, intravenous maintenance administration; format: in vivo, rat
# Procedure: as §1, §2, §3, §4, §5
substance,measurement,setting,value
Enoxaparin,Thrombus dry weight,[1],17.3 ± 6.5 mg
same,Thrombus inhibitory rate,[1],26.88%
same,APTT Before administration,[2]; iv 30 + 45 u (U/kg+U/kg/h),28.99 ± 7.00
same,APTT Fold of change,[2]; iv 30 + 45 u (U/kg+U/kg/h),1.78 ± 0.61
same,APTT administration for 60 minutes,[2]; iv 30 + 45 u (U/kg+U/kg/h),52.28 ± 22.51
same,APTT Before administration,[2]; iv 30 + 120 u (U/kg+U/kg/h),23.66 ± 5.88
same,APTT Fold of change,[2]; iv 30 + 120 u (U/kg+U/kg/h),4.65 ± 1.72
same,APTT administration for 60 minutes,[2]; iv 30 + 120 u (U/kg+U/kg/h),117.55 ± 78.85
same,APTT Before administration,[2]; iv 60 + 60 u (U/kg+U/kg/h),23.45 ± 4.70
same,APTT Fold of change,[2]; iv 60 + 60 u (U/kg+U/kg/h),2.66 ± 0.36
same,APTT administration for 60 minutes,[2]; iv 60 + 60 u (U/kg+U/kg/h),61.81 ± 13.19
same,APTT Before administration,[2]; iv 60 + 240 u (U/kg+U/kg/h),26.79 ± 4.74
same,APTT Fold of change,[2]; iv 60 + 240 u (U/kg+U/kg/h),10.69 ± 7.14
same,APTT administration for 60 minutes,[2]; iv 60 + 240 u (U/kg+U/kg/h),270.43 ± 166.43
same,APTT Before administration,[2]; iv 90 + 120 u (U/kg+U/kg/h),19.04 ± 5.26
same,APTT Fold of change,[2]; iv 90 + 120 u (U/kg+U/kg/h),16.34 ± 12.97
same,APTT administration for 60 minutes,[2]; iv 90 + 120 u (U/kg+U/kg/h),270.85 ± 148.90
same,Common carotid arterial thrombosis Fold of prolongation,[3]; iv 30 + 45 u (U/kg+U/kg/h),1.93 ± 0.52
same,Common carotid arterial thrombosis OT,[3]; iv 30 + 45 u (U/kg+U/kg/h),48.17 ± 13.12 min
same,Common carotid arterial thrombosis Fold of prolongation,[3]; iv 30 + 120 u (U/kg+U/kg/h),1.66 ± 0.27
same,Common carotid arterial thrombosis OT,[3]; iv 30 + 120 u (U/kg+U/kg/h),41.4 ± 6.68 min
same,Common carotid arterial thrombosis Fold of prolongation,[3]; iv 60 + 60 u (U/kg+U/kg/h),2.23 ± 0.29
same,Common carotid arterial thrombosis OT,[3]; iv 60 + 60 u (U/kg+U/kg/h),55.75 ± 7.23 min
same,Common carotid arterial thrombosis Fold of prolongation,[3]; iv 60 + 240 u (U/kg+U/kg/h),1.99 ± 0.20
same,Common carotid arterial thrombosis OT,[3]; iv 60 + 240 u (U/kg+U/kg/h),49.75 ± 5.04 min
same,Common carotid arterial thrombosis Fold of prolongation,[3]; iv 90 + 120 u (U/kg+U/kg/h),1.95 ± 0.46
same,Common carotid arterial thrombosis OT,[3]; iv 90 + 120 u (U/kg+U/kg/h),48.83 ± 11.58 min
same,PT Before administration,[4]; iv 30 + 45 u (U/kg+U/kg/h),10.23 ± 1.19
same,PT Fold of change,[4]; iv 30 + 45 u (U/kg+U/kg/h),1.24 ± 0.14
same,PT administration for 60 minutes,[4]; iv 30 + 45 u (U/kg+U/kg/h),12.70 ± 2.49
same,PT Before administration,[4]; iv 30 + 120 u (U/kg+U/kg/h),9.93 ± 1.77
same,PT Fold of change,[4]; iv 30 + 120 u (U/kg+U/kg/h),1.67 ± 0.42
same,PT administration for 60 minutes,[4]; iv 30 + 120 u (U/kg+U/kg/h),16.17 ± 1.86
same,PT Before administration,[4]; iv 60 + 60 u (U/kg+U/kg/h),9.53 ± 1.96
same,PT Fold of change,[4]; iv 60 + 60 u (U/kg+U/kg/h),4.10 ± 5.56
same,PT administration for 60 minutes,[4]; iv 60 + 60 u (U/kg+U/kg/h),31.39 ± 35.50
same,PT Before administration,[4]; iv 60 + 240 u (U/kg+U/kg/h),10.28 ± 0.98
same,PT Fold of change,[4]; iv 60 + 240 u (U/kg+U/kg/h),1.78 ± 0.30
same,PT administration for 60 minutes,[4]; iv 60 + 240 u (U/kg+U/kg/h),18.21 ± 2.70
same,PT Before administration,[4]; iv 90 + 120 u (U/kg+U/kg/h),9.63 ± 1.58
same,PT Fold of change,[4]; iv 90 + 120 u (U/kg+U/kg/h),1.57 ± 0.21
same,PT administration for 60 minutes,[4]; iv 90 + 120 u (U/kg+U/kg/h),14.88 ± 1.67
